US10329256B2, “(Hetero)aryl cyclopropylamine compounds as LSD1 inhibitors” (Oryzon Genomics, S.A., priority 2011, dated 2019)
Structures can show the parent of a compound that is named as a salt.

Test system: THP-1 cells
Assay: cells
Assay type: cell-based
Details: Homo sapiens, THP-1, 96 h
Protocol: By analyzing the induction of CD11b membrane expression on THP-1 cells we are assessing the ability of LSD1 inhibitors to induce terminal monocytic differentiation of a MLL-AF9 AML cell line.
They carry t(9; 11)(p21; q23) leading to MLL-MLLT3 (MLL-AF9) fusion gene. This cell line can undergo monocytic differentiation upon treatment with the appropriate stimulus.
In this assay, 150,000 THP-1 cells were seeded in 1 ml of complete culture medium in 6-well tissue culture plates. Serial dilutions of the compounds were prepared in DMSO and then further diluted in complete medium to generate solutions of concentrations that are double of the final concentration at which the cells will be exposed. 1 ml of these 2× concentrated solutions was added to the cells.
Cells were kept in the presence of compounds for 96 h at a 5% CO2 atmosphere at 37° C. After this treatment period, cells were harvested, washed twice with PBS buffer and placed in a V-bottom 96-well plate. Each treated sample was split in two.
Percentage of CD11b positive cells, as an indicator of monocytic differentiation, was determined compared to isotype control antibody stained cells. EC50 values were calculated by non-linear regression analysis.

Row | SMILES | EC50
1 | c1ccc([C@@H]2C[C@H]2NC2CCNCC2)cc1 [Example 3, N-((1R,2S)-2-phenylcyclopropyl)piperidin-4-amine hydrochloride] | 0.8 nM
2 | c1ccc([C@H]2C[C@@H]2NC2CCNCC2)cc1 (racemic) [Example 1, N-((trans)-2-phenylcyclopropyl)piperidin-4-amine hydrochloride] | 2.1 nM
